Tested on: subjects with PAH
Experiment: Example 2 (ARIES-1) placebo-controlled Phase III trial, efficacy
Assay type: in vivo, human
Conditions: for change from baseline in mean 6MWD at Week 12: subjects who received supplemental oxygen
Method: The primary objective of this study was to determine the effect of ambrisentan on exercise capacity in subjects with pulmonary arterial hypertension (PAH). The secondary objectives of this study were to evaluate effects of ambrisentan on other clinical measures of PAH, as well as safety and tolerability of the study drug.
Study drug was provided in round, biconvex, oral tablets that were identical in appearance. Three strengths of active study drug containing 2.5 mg, 5 mg or 10 mg of ambrisentan were used in this study. All study drug was packaged in blister cards. Subjects were instructed to take study drug once daily (q.d.) by mouth (p.o.) in the morning, with or without food.
The maximum study duration was up to 14 weeks from the time of initial screening procedures to the final study visit (Week 12). Screening procedures were performed a maximum of 2 weeks prior to the first dose of study drug. The maximum duration of study drug treatment was 12 weeks.
Men and women, 18 years of age or older, with idiopathic PAH, PAH associated with CTD, e.g., mixed CTD, CREST syndrome, systemic sclerosis (scleroderma), overlap syndrome or systemic lupus erythematosus, or PAH associated with anorexigen use or HIV infection were enrolled in this study. Subjects were to have a documented mean PAP≧25 mmHg, PVR>3 mmHgL/min, and PCWP or LVEDP<15 mmHg. Subjects must have been able to walk a distance of at least 150 m but no more than 450 m during 2 consecutive 6MWTs to be eligible for inclusion in the study.
After a 2 week screening period, eligible subjects were stratified based on the underlying etiology of PAH (idiopathic or non-idiopathic) and were randomized to 1 of 3 treatment groups (placebo, 5 mg or 10 mg ambrisentan) in a ratio of 1:1:1. One blinded dose reduction was permitted during the 12-week treatment period in the event of study drug intolerance (e.g., 10 mg to 5 mg, 5 mg to 2.5 mg, placebo to placebo). Subjects received a daily dose of 2.5 mg ambrisentan only if they reduced from the 5 mg dose group. Subjects were assessed for efficacy and safety at monthly intervals.
Therefore, after a minimum treatment period of 4 weeks, subjects who met 2 or more of the following predefined early escape criteria may have been removed from the study: • (a) a decrease from baseline of at least 20% in 6MWD; • (b) an increase of 1 or more WHO functional class; • (c) worsening right ventricular failure (e.g., as indicated by increased jugular venous pressure, new or worsening hepatomegaly, ascites or peripheral edema); • (d) rapidly progressing cardiogenic, hepatic or renal failure; and/or • (e) refractory systolic hypotension (systolic blood pressure <85 mmHg).
The primary efficacy endpoint was change from baseline in 6MWD evaluated after 12 weeks of treatment compared to placebo.
The secondary efficacy endpoints included: • (a) time to clinical worsening of PAH, as defined by the time from randomization to the first occurrence of death, lung transplantation, hospitalization for PAH, atrial septostomy, study discontinuation due to addition of other PAH therapeutic agents, or study discontinuation due to 2 or more early escape criteria; • (b) change from baseline measured after 12 weeks of treatment compared to placebo in: • (i) WHO functional class; • (ii) SF-36® health survey physical functioning scale; • (iii) BDI immediately following exercise; and/or • (iv) an assessment of the safety and tolerability of the study drug; and • (c) change from baseline measured after 12 weeks of treatment compared to placebo in plasma levels of ET-1, BNP and cTnT. Safety Assessments
For the ITT population, subjects were considered as belonging to their randomized treatment group, regardless of the actual treatment received.
The primary efficacy endpoint was the change from baseline in 6MWD evaluated after 12 weeks of treatment compared to placebo, where the last observation was carried forward. […]

[1] = 10 mg once daily, baseline to Week 12
[2] = combined 5 mg and 10 mg groups, 12 weeks
[3] = combined 5 mg and 10 mg groups, Week 12
[4] = combined 5 mg and 10 mg groups, baseline to Week 12

COC(c1ccccc1)(c1ccccc1)[C@H](Oc1nc(C)cc(C)n1)C(=O)O [ambrisentan]
Change in SF-36 Social functioning, mean (SD) [1]: +4.11 ± 11.77 | Change in SF-36 Vitality, mean (SD) [1]: +5.03 ± 10.07 | Change in WHO functional class: +1 class [1]: 3 (4.5) subjects (% of ITT population) | Change in WHO functional class: +2 classes [1]: 0 (0.0) subjects (% of ITT population) | Change in WHO functional class: no change [1]: 44 (65.7) subjects (% of ITT population) | Change in WHO functional class: −1 class [1]: 15 (22.4) subjects (% of ITT population) | Change in WHO functional class: −2 classes [1]: 5 (7.5) subjects (% of ITT population) | placebo-adjusted 6MWD increase from baseline at Week 12 (WHO class I/II subgroup, 5 mg once daily): +25.6 m | placebo-adjusted 6MWD increase from baseline at Week 12 (WHO class I/II subgroup, 10 mg once daily): +42.0 m | placebo-adjusted 6MWD increase from baseline at Week 12 (WHO class III/IV subgroup, 5 mg once daily): +34.1 m | placebo-adjusted 6MWD increase from baseline at Week 12 (WHO class III/IV subgroup, 10 mg once daily): +56.9 m | placebo-adjusted BDI at Week 12 (combined 5 mg and 10 mg groups): −0.6 | Clinical worsening event: Atrial septostomy [2]: 0 (0.0) subjects (% of ITT population) | Clinical worsening event: Death [2]: 2 (1.5) subjects (% of ITT population) | Clinical worsening event: Escape criteria [2]: 2 (1.5) subjects (% of ITT population) | Clinical worsening event: Hospitalization for PAH [2]: 4 (3.0) subjects (% of ITT population) | Clinical worsening event: Lung transplantation [2]: 0 (0.0) subjects (% of ITT population) | Clinical worsening event: Study discontinuation due to addition of PAH treatment [2]: 1 (0.7) subjects (% of ITT population) | Clinical worsening: Total subjects with ≧1 event [2]: 6 (4.5) subjects (% of ITT population) | Change in 6MWD from baseline to Week 12, mean (combined 5 mg and 10 mg groups, ITT population): +33.2 meters | subjects who deteriorated by at least 1 WHO class [3]: 3.0% | subjects who had an improvement of 2 WHO classes [3]: 4.5% | Change in SF-36 Bodily pain, mean (SD) [4]: +0.42 ± 12.81 | Change in SF-36 General health, mean (SD) [4]: +1.66 ± 8.74 | Change in SF-36 Mental component summary, mean (SD) [4]: +1.30 ± 11.89 | Change in SF-36 Mental health, mean (SD) [4]: +1.18 ± 11.23 | Change in SF-36 Physical component summary, mean (SD) [4]: +3.34 ± 8.40 | Change in SF-36 Role-emotional, mean (SD) [4]: +2.19 ± 15.71 | Change in SF-36 Role-physical, mean (SD) [4]: +5.45 ± 10.47 | Change in SF-36 Social functioning, mean (SD) [4]: +2.61 ± 12.78 | Change in SF-36 Vitality, mean (SD) [4]: +3.71 ± 10.11 | Change in WHO functional class: +1 class [4]: 4 (3.0) subjects (% of ITT population) | Change in WHO functional class: +2 classes [4]: 0 (0.0) subjects (% of ITT population) | Change in WHO functional class: no change [4]: 91 (67.9) subjects (% of ITT population) | Change in WHO functional class: −1 class [4]: 33 (24.6) subjects (% of ITT population) | Change in WHO functional class: −2 classes [4]: 6 (4.5) subjects (% of ITT population) | placebo-adjusted 6MWD increase from baseline at Week 12 (female subjects, 5 mg once daily): +30.9 m | placebo-adjusted 6MWD increase from baseline at Week 12 (female subjects, 10 mg once daily): +57.7 m | placebo-adjusted 6MWD increase from baseline at Week 12 (idiopathic PAH subgroup, 5 mg once daily): +42.9 m | placebo-adjusted 6MWD increase from baseline at Week 12 (idiopathic PAH subgroup, 10 mg once daily): +56.9 m | placebo-adjusted 6MWD increase from baseline at Week 12 (male subjects, 5 mg once daily): +19.9 m | placebo-adjusted 6MWD increase from baseline at Week 12 (male subjects, 10 mg once daily): +13.1 m | placebo-adjusted 6MWD increase from baseline at Week 12 (non-idiopathic PAH subgroup, 5 mg once daily): +10.2 m | placebo-adjusted 6MWD increase from baseline at Week 12 (non-idiopathic PAH subgroup, 10 mg once daily): +43.0 m | placebo-adjusted 6MWD increase from baseline at Week 12 (subjects not receiving calcium channel blockers, 5 mg once daily): +38.7 m | placebo-adjusted 6MWD increase from baseline at Week 12 (subjects not receiving calcium channel blockers, 10 mg once daily): +67.9 m | reduction in the probability of clinical worsening (hazard ratio) compared to placebo (subjects receiving ambrisentan (combined group), 12 weeks): 50% | subjects hospitalized for PAH (subjects receiving ambrisentan (combined), 12 weeks): 3.0% | placebo-adjusted 6MWD increase from baseline at Week 12 (subjects receiving calcium channel blockers, 5 mg once daily): +15.1 m | placebo-adjusted 6MWD increase from baseline at Week 12 (subjects receiving calcium channel blockers, 10 mg once daily): +19.6 m | change from baseline in mean 6MWD at Week 12 (5 mg once daily): +21.1 m | change from baseline in mean 6MWD at Week 12 (10 mg once daily): +48.0 m

From US9504685B2, “Method for treating a pulmonary hypertension condition” (Gilead Sciences, Inc., priority 2006, dated 2016)
